According to US20170007559A1, “COMPOSITIONS AND METHODS FOR PROTECTING COLONIC EPITHELIAL BARRIER FUNCTION” (The University of Tennessee Research Foundation, priority 2015, published 2017):

Legend:
Caco-2 cell monolayers = assay: Radiation-induced redistribution of TJ proteins in Caco-2 cell monolayers; format: cell-based; settings: NAC 10 mM pretreatment for one hour, radiation 4 Gy
Experimental: Therefore, we evaluated the effect of radiation on barrier function and TJ proteins in Caco-2 and m-ICC12 cell monolayers in vitro. Barrier function was evaluated by measuring transepithelial electrical resistance (TER) and transepithelial flux of FITC-inulin in cell monolayers grown on transwell inserts. Cell monolayers were also fixed and stained for occludin and ZO-1 for confocal microscopy.
The effect of LPA was also tested in m-ICC12 cells at varying doses of radiation. LPA blocked IRR-induced redistribution of ZO-1 (FIG. 14C). […] These models can be used for further mechanistic studies.

[1] = tested on: intestinal mucosal barrier function; assay: Gut permeability in vivo, vascular-to-luminal flux of FITC-inulin after total body irradiation; parameters: species or system mouse
Experimental: In the first study, adult female (12-14 week's age) mice were subjected to total body irradiation (4 Gy). At 2-24 hours post-irradiation (IR), the integrity of colonic epithelial TJs, AJs and actin cytoskeleton was examined. In a second study, mice were randomized to four groups: Sham (control), IR, NAC and NAC+IR, and fed a liquid diet with (NAC and NAC+IR) or without (Sham and IR) 20 mM NAC for 5 days prior to irradiation. IR and NAC+IR mice were subjected to total body irradiation (4 Gy), while Sham and NAC mice were sham-treated. At 2 hours post-irradiation, colon and ileum were collected and examined for oxidative stress and epithelial junctional integrity. At the end of experiment, gut permeability was measured as described below. Colon and ileum segments were stored frozen for further analyses. Mucosal barrier dysfunction was evaluated by measuring gut permeability to FITC-inulin (6 kDa). On the last day of experiment, mice were intravenously injected with FITC-inulin (50 mg/ml solution; 2 μl/g body weight) via tail vein. One hour after injection, blood samples were collected by cardiac puncture under isoflurane anesthesia for plasma preparation. Luminal contents from colon and ileum were flushed with 0.9% saline. Fluorescence in plasma and luminal flushing was measured using fluorescence plate reader. Fluorescence values in the luminal flushing were normalized to fluorescence values in corresponding plasma samples and calculated as percent of amount injected.

[2] = tested on: reduced and oxidized protein thiols; assay: Protein thiol assay in colon and ileum after total body irradiation; format: in vivo, mouse; settings: TBI 4 Gy, 2 hours post irradiation
Experimental: In the first study, adult female (12-14 week's age) mice were subjected to total body irradiation (4 Gy). At 2-24 hours post-irradiation (IR), the integrity of colonic epithelial TJs, AJs and actin cytoskeleton was examined. In a second study, mice were randomized to four groups: Sham (control), IR, NAC and NAC+IR, and fed a liquid diet with (NAC and NAC+IR) or without (Sham and IR) 20 mM NAC for 5 days prior to irradiation. IR and NAC+IR mice were subjected to total body irradiation (4 Gy), while Sham and NAC mice were sham-treated. At 2 hours post-irradiation, colon and ileum were collected and examined for oxidative stress and epithelial junctional integrity. At the end of experiment, gut permeability was measured as described below. Colon and ileum segments were stored frozen for further analyses. Protein thiols in colonic sections were assessed as described before. Reduced protein thiols were evaluated by staining cryosections colon with BODIPY FL-N-(2-aminoethyl) maleimide (Flm) and confocal microscopy at excitation and emission wavelengths, 490 nm and 534 nm, respectively. For oxidized protein thiols, the reduced protein thiol was first alkylated with N-ethylmaleimide followed by reduction of oxidized protein thiols with tris (2-carboxyethyl) phosphine prior to staining with Flm. […] Fluorescence images collected and fluorescence quantitated by Image J software.

colonic loops = assay: Inulin absorption from the lumen of isolated colonic loops of irradiated mice; format: in vivo, mouse; settings: loops prepared 3 hours post irradiation from NAC-fed, incubated 75 min
Experimental: At 3 hours post irradiation, colonic loops were prepared and filled with 0.15 ml of 0.9% saline containing FITC-inulin (0.05 mg/ml) and incubated for 75 min in an incubator. Luminal contents were measured for fluorescence to evaluate inulin absorption from colonic lumen.

[3] = tested on: colonic epithelial TJs, AJs and actin cytoskeleton; assay: Immunofluorescence of TJ and AJ proteins and F-actin in mouse intestine after total body irradiation (4 Gy); format: in vivo; settings: 20 mM NAC in liquid diet for 5 days prior to TBI 4 Gy, 2 hours post irradiation
Experimental: (§1) In the first study, adult female (12-14 week's age) mice were subjected to total body irradiation (4 Gy). At 2-24 hours post-irradiation (IR), the integrity of colonic epithelial TJs, AJs and actin cytoskeleton was examined. In a second study, mice were randomized to four groups: Sham (control), IR, NAC and NAC+IR, and fed a liquid diet with (NAC and NAC+IR) or without (Sham and IR) 20 mM NAC for 5 days prior to irradiation. IR and NAC+IR mice were subjected to total body irradiation (4 Gy), while Sham and NAC mice were sham-treated. At 2 hours post-irradiation, colon and ileum were collected and examined for oxidative stress and epithelial junctional integrity. At the end of experiment, gut permeability was measured as described below. Colon and ileum segments were stored frozen for further analyses.
Cryo-sections of colon (10 μm thickness) and ileum (12 μm thickness) were fixed in acetone methanol mixture (1:1) at […] for 2 min and rehydrated in phosphate buffered saline (PBS). Sections were permeabilized with 0.5% Triton X-100 in PBS for 15 min and blocked in 4% non-fat milk in TBST (20 mM Tris, pH 7.2 and 150 mM NaCl). It was then incubated for one hour with primary antibodies (mouse monoclonal anti-occludin and rabbit polyclonal anti-ZO-1 antibodies or mouse monoclonal E-cadherin and rabbit polyclonal anti-β-catenin antibodies), followed by incubation for one hour with secondary antibodies (AlexaFluor-488-conjugated anti-mouse IgG and Cy3-conjugated anti-rabbit IgG antibodies from Molecular Probes, Eugene, Oreg.) containing Hoechst 33342. The fluorescence was examined by using a confocal microscope (Zeiss 710) and images from x-y sections (1 μm) were collected using Zen software. Images were stacked using the Image J software (NIH) and processed by Adobe Photoshop (Adobe Systems Inc., San Jose, Calif.).
Studies were performed to evaluate the effect of RP-1 on radiation-induced redistribution of TJ and AJ proteins in mouse colon in vivo. Mice were subjected to TBI (4 Gy); in some groups, animals received a one-time injection of RP-1 (0.1 mg/kg) 30 min prior to IRR. At 2 hours post-IRR, cryosections of colon were stained for TJ and AJ proteins, images collected by confocal microscopy and fluorescence measured by densitometric analysis.

[4] = tested on: detergent-insoluble fractions of TJ and AJ proteins; assay: Immunoblot of TJ and AJ proteins in detergent-insoluble fraction of distal colonic mucosa after total body irradiation; format: in vivo, mouse; settings: 20 mM NAC in liquid diet for 5 days prior to TBI 4 Gy, 2 hours post irradiation
Experimental: as §1, with “Colon and ileum segments were stored frozen for further analyses.” left out
Actin-rich detergent-insoluble fraction was prepared as described previously (Elias, B. C.; Suzuki, T.; Seth, A.; Giorgianni, F.; Kale, G.; Shen, L.; Turner, J. R.; Naren, A.; Desiderio, D. M.; Rao, R. Phosphorylation of Tyr-398 and Tyr-402 in occludin prevents its interaction with ZO-1 and destabilizes its assembly at the tight junctions. J Biol Chem 284:1559-1569; 2009; Kale, G.; Naren, A. P.; Sheth, P.; Rao, R. K. Tyrosine phosphorylation of occludin attenuates its interactions with ZO-1, ZO-2, and ZO-3. Biochem Biophys Res Commun 302:324-329; 2003.). […] Protein content was measured by BCA method (Pierce Biotechnology, Rockford, Ill.). […]

CC(=O)N[C@@H](CS)C(=O)O [NAC, N-acetyl L-cysteine]
radiation-induced loss of junctional occludin and ZO-1 (Caco-2 cell monolayers): significantly blocked | mucosal permeability in colon or ileum, NAC by itself ([1]; NAC-fed, sham-treated mice (no irradiation)): no significant influence | radiation-induced increase in colonic mucosal permeability to FITC-inulin ([1]; colon, 20 mM NAC in liquid diet for 5 days prior to TBI 4 Gy, in vivo flux): effectively attenuated | radiation-induced increase in inulin permeability in the ileum ([1]; ileum, NAC supplementation in diet prior to TBI 4 Gy, in vivo flux): blocked | radiation-induced decrease in stain for reduced protein thiols and increase in stain for oxidized protein thiols ([2]; NAC fed mice, confocal images): absent | radiation-induced conversion of reduced protein thiols into oxidized protein thiols, densitometric analysis of fluorescence ([2]; NAC feeding): attenuates | radiation-induced increase in inulin absorbed from the lumen of colonic loops (colonic loops): absent | radiation-induced redistribution of Cldn-3 ([3]; colon and ileum): blocked | radiation-induced redistribution of E-cadherin and β-catenin from the intercellular junctions ([3]; colon and ileum): absent | radiation-induced redistribution of occludin and ZO-1 from the intercellular junctions ([3]; colon and ileum): almost a complete attenuation | radiation-induced loss of F-actin (actin cytoskeleton), colon ([3]; colon): almost complete | radiation-induced loss of F-actin (actin cytoskeleton), ileum ([3]; ileum): only partially protected | radiation-induced loss of detergent-insoluble fractions of TJ and AJ proteins [4]: blocked
